This passage reports Salmonella detection results from patent US20230105082A1, “ANTIMICROBIAL COMPOSITIONS FOR PET FOOD PRODUCTS” (priority 2020, published 2023).

This experiment relates to mixture in equal parts of Salmonella ser. Newport, Salmonella ser. Senftenberg, and Salmonella ser. Typhimurium. Description: Salmonella inhibition in inoculated poultry fat (Examples 2, 4 and 5). In kind it is cell-based, Salmonella enterica subsp. enterica. To be noted: 1000 ppm in fat; 1 month after inoculation. From the text: Bacterial strains and culture medium Six serovars of Salmonella enterica subsp. enterica were used in these studies: Salmonella ser. Infantis (CIP103549), Salmonella ser. Mbandaka (CIP105859), and Salmonella ser. Senftenberg (isolate from pork/poultry from ANSES collection) for Example 1, Example 3 and Example 6 or Salmonella ser. Newport, Salmonella ser. Senftenberg, and Salmonella ser. Typhimurium (all isolated from pet food) for Example 2, Example 4, and Example 5. All strains were kept in collection at -80° C. in glycerol broth. Bacterial strains were cultured in Brain Heart Infusion agar and subcultured in Brain Heart Infusion broth at 37° C. for 20±2 h (BHI, VWR, USA). Salmonella count in poultry fat was carried out using Xylose Lysine Deoxycholate agar (XLD, VWR, USA) for Example 1, Example 3, and Example 6 or Violet Red Bile Glucose agar (VRBG, BioRad, USA) for Example 2, Example 4 and Example 5. Salmonella detection was done following modified EN ISO 6579-1 in 125 g of poultry fat.
Inoculum preparation Two types of matrix inoculum were used. […]
Antimicrobial efficacy of Compositions 5, 6, 7, 8, 16 was tested when added at 500 ppm in fat and compared to antimicrobial efficacy of phosphoric acid (Composition 1) when added at 1000 ppm in fat. The antimicrobial efficacy of Composition 16 at 1000 ppm in fat was also evaluated. […]

Consider `O=P(O)(O)O` [Composition 1, Phosphoric acid], for which the Salmonella detection entry is recorded as “still detected”.
